From EPA's ToxValDB 9.5 (doi:10.2903/j.efsa.2017.4989)
Converted amounts (≈) assume the structure as drawn.

Legend:
[1] = test system: Folsomia candida; conditions: chronic/long-term; mortality
[2] = test system: Oncorhynchus mykiss; conditions: for LC50: acute, duration: 96 hours, mortality
[3] = test system: Rattus norvegicus
[4] = test system: Tagia sp.; conditions: chronic/long-term; growth
[5] = test system: Hypoaspis aculeifer; conditions: chronic/long-term; mortality
[6] = test system: Anas platyrhynchos; conditions: acute; oral; unspecified; mortality
[7] = test system: Apis mellifera; conditions: acute, duration: 48 hours, mortality
[8] = test system: Colinus virginianus
[9] = test system: Daphnia magna; conditions: chronic/long-term; duration: 21 days; reproduction
[10] = test system: Oryctolagus sp.; conditions: developmental; development

CO/N=C(/C(=O)O)c1ccccc1CO/N=C(/C(=O)O)c1cccc(C(F)(F)F)c1
NOEC [1]: 100 mg/kg | LC50 [2]: > 100 mg/L | LD50 ([3]; acute, oral, mortality): > 2000 mg/kg-day | NOAEL ([3]; short-term, duration: 28 days): > 1000 mg/kg-day | NOEC [4]: 100 mg/kg

CO/N=C(/C(=O)O)c1ccccc1CO/N=C(\C(=O)O)c1cccc(C(F)(F)F)c1
NOEC [1]: 10 mg/kg | NOEC [5]: 100 mg/kg | LC50 [2]: > 100 mg/L | LD50 ([3]; acute, oral, mortality): > 2000 mg/kg-day | NOAEL ([3]; short-term, duration: 28 days, clinical chemistry): 150 mg/kg-day | NOEC [4]: 100 mg/kg

CO/N=C(/C(=O)OC)c1ccccc1CO/N=C(\C)c1cccc(C(F)(F)F)c1 [Trifloxystrobin]
LD50 [6]: > 2250 mg/kg-day | LD50 ([7]; dermal): > 100 µg/piece | LD50 ([7]; oral, unspecified): > 110 µg/piece | LD50 ([8]; acute, oral, mortality): > 2000 mg/kg-day | NOEL ([8]; chronic): 31 mg/kg-day | NOEC [9]: 0.00276 mg/L | NOEC [1]: 249 mg/kg | NOEC [5]: 249 mg/kg | LC50 [2]: 0.015 mg/L (≈ 0.0367 µM) | NOEC ([2]; chronic/long-term, duration: 95 days, other): 0.0043 mg/L | NOAEL [10]: 50 mg/kg-day | LC50 ([3]; acute, oral, mortality): > 5000 mg/kg-day | NOAEL ([3]; chronic, body weight): 10 mg/kg-day | NOAEL ([3]; reproduction developmental, body weight): 10 mg/kg-day | NOEC [4]: 3.5 mg/kg
